{"source": "patent US12655090B2", "about": "“Cyclopropylamide compounds against parasites in fish” (Intervet Inc., priority 2021, dated 2026)"}
{"system": "Mobile stages of sea lice (pre-adults, adults of Lepeophtheirus salmonis)", "experiment": "Adult sea lice contact assay", "conditions": "assessed after approximately 1 and 24 hours of continuous exposure, read-out: EC50 (sea lice inhibition, dead+damaged sea lice)", "experimental": "Mobile stages of sea lice (i.e., pre-adults, adults of Lepeophtheirus salmonis) were exposed to seawater spiked with declining concentrations of a test compound (dissolved in a PEG sea-water mixture). Sea lice inhibition (% of dead+damaged sea lice) was assessed after approximately 1 and 24 hours of continuous exposure in comparison to a negative (solvent) control group.", "units": {"EC50": "nM"}}
{"smiles": "N#CC1(NC(=O)c2cc(NC(=O)C3C(c4ccc(F)c(Cl)c4)C3(Cl)Cl)cc(F)c2F)CC1", "note": "(stereo not shown) [Compound 1589]", "EC50": "≤ 1"}
{"smiles": "CC(C)(NC(=O)c1cc(NC(=O)C2C(c3cc(F)c(F)c(F)c3)C2(Cl)Cl)ccc1Cl)C(F)(F)F", "note": "(stereo not shown) [Compound 1603]", "EC50": "10 to 25"}
{"smiles": "O=C(NC1CC(F)(F)C1)c1cc(NC(=O)C2C(c3cccc(C(F)(F)F)c3)C2(Cl)Cl)ccc1Cl", "note": "(racemic) [Compound 1508]", "EC50": "1 to 10"}
{"smiles": "N#CC1(NC(=O)c2cc(NC(=O)C3C(c4ccc(Cl)c(C(F)F)c4)C3(Cl)Cl)ccc2Cl)CC1", "note": "(racemic) [Compound 1546]", "EC50": "10 to 25"}
{"smiles": "CC(NC(=O)c1cc(NC(=O)C2C(c3cc(F)c(F)c(F)c3)C2(Cl)Cl)ccc1Cl)C(F)(F)F", "note": "(racemic) [Compound 1602]", "EC50": "10 to 25"}
{"smiles": "N#CC1(NC(=O)c2cc(NC(=O)C3C(c4cc(C(F)(F)F)cc(C(F)(F)F)c4)C3(Cl)Cl)ccc2Cl)CC1", "note": "(stereo not shown) [Compound 1612]", "EC50": "10 to 25"}
{"smiles": "N#CC1(NC(=O)c2cc(NC(=O)C3C(c4cc(F)cc(C(F)F)c4)C3(Cl)Cl)ccc2Cl)CC1", "note": "(racemic) [Compound 1547]", "EC50": "1 to 10"}
{"smiles": "N#CC1(NC(=O)c2cc(NC(=O)C3C(c4ccc(C(F)F)c(Cl)c4)C3(Cl)Cl)ccc2Cl)CC1", "note": "(racemic) [Compound 1548]", "EC50": "10 to 25"}
{"system": "Copepodids (juvenile sea lice stage of Lepeophtheirus salmonis)", "experiment": "Juvenile sea lice contact assay", "conditions": "test concentration 0.01 nM, approximately 24 hours continuous exposure in seawater, read-out: Sea lice inhibition (% of dead+damaged copepodids)", "experimental": "(§1) Copepodids (juvenile sea lice stage of Lepeophtheirus salmonis) were exposed to seawater spiked with declining concentrations of a test compound (dissolved in a DMSO sea-water mixture). Sea lice inhibition (% of dead+damaged copepodids) was assessed after approximately 24 hours of continuous exposure. The vitality of used parasites was confirmed in a negative (solvent) control group.", "units": {"inhibition at 10 pM": "%"}}
{"smiles": "O=C(NCCC(F)(F)F)c1cc(NC(=O)C2C(c3ccc(F)c(Cl)c3)C2(Cl)Cl)ccc1Cl", "note": "(racemic) [Compound 1538]", "inhibition at 10 pM": 100}
{"smiles": "O=C(NCCCCl)c1cc(NC(=O)C2C(c3ccc(F)c(Cl)c3)C2(Cl)Cl)ccc1F", "note": "(racemic) [Compound 1563]", "inhibition at 10 pM": 100}
{"smiles": "O=C(NCC(F)(F)F)c1cc(NC(=O)C2C(c3cc(F)c(F)c(F)c3)C2(Cl)Cl)ccc1Cl", "note": "(racemic) [Compound 1551]", "inhibition at 10 pM": 100}
{"smiles": "O=C(NCC(F)(F)F)c1cc(NC(=O)C2C(c3ccc(F)c(Cl)c3)C2(Cl)Cl)cc(F)c1Cl", "note": "(racemic) [Compound 1565]", "inhibition at 10 pM": 100}
{"smiles": "O=C(NCCF)c1cc(NC(=O)C2C(c3ccc(F)c(Cl)c3)C2(Cl)Cl)ccc1Cl", "note": "(racemic) [Compound 1536]", "inhibition at 10 pM": 100}
{"smiles": "O=C(NCC(F)(F)F)c1cc(NC(=O)C2C(c3ccc(F)c(Cl)c3)C2(Cl)Cl)ccc1F", "note": "(racemic) [Compound 1559]", "inhibition at 10 pM": 100}
{"smiles": "O=C(NCCF)c1cc(NC(=O)C2C(c3ccc(F)c(Cl)c3)C2(Cl)Cl)ccc1F", "note": "(racemic) [Compound 1558]", "inhibition at 10 pM": 100}
{"system": "Copepodids (juvenile sea lice stage of Lepeophtheirus salmonis)", "experiment": "Juvenile sea lice contact assay", "conditions": "test concentration 1 nM, approximately 24 hours continuous exposure in seawater, read-out: Sea lice inhibition (% of dead+damaged copepodids)", "experimental": "as §1", "units": {"inhibition at 0.001 µM": "%"}}
{"smiles": "N#CC1(NC(=O)c2cc(NC(=O)C3C(c4ccc(F)c(Cl)c4)C3(Cl)Cl)cc(F)c2F)CC1", "note": "(stereo not shown) [Compound 1589]", "inhibition at 0.001 µM": 80}
{"smiles": "O=C(NCCCCl)c1cc(NC(=O)C2C(c3ccc(F)c(Cl)c3)C2(Cl)Cl)cc(F)c1F", "note": "(racemic) [Compound 1574]", "inhibition at 0.001 µM": 80}
{"smiles": "CC1(NC(=O)c2cc(NC(=O)C3C(c4cc(Cl)cc(Cl)c4)C3(Cl)Cl)ccc2Cl)CC1", "note": "(racemic) [Compound 1523]", "inhibition at 0.001 µM": 80}
{"smiles": "Cc1c(F)cc(NC(=O)C2C(c3ccc(F)c(Cl)c3)C2(Cl)Cl)cc1C(=O)NCC(F)(F)F", "note": "(racemic) [Compound 1567]", "inhibition at 0.001 µM": 100}
{"system": "Copepodids (juvenile sea lice stage of Lepeophtheirus salmonis)", "experiment": "Juvenile sea lice contact assay", "conditions": "test concentration 10 nM, approximately 24 hours continuous exposure in seawater, read-out: Sea lice inhibition (% of dead+damaged copepodids)", "experimental": "as §1", "units": {"inhibition at 0.01 µM": "%"}}
{"smiles": "O=C(NC1CC(F)(F)C1)c1cc(NC(=O)C2C(c3cc(Cl)cc(Cl)c3)C2(Cl)Cl)ccc1Cl", "note": "(stereo not shown) [Compound 1531]", "inhibition at 0.01 µM": 100}
{"smiles": "O=C(NCC(F)(F)F)c1cc(NC(=O)C2C(c3ccc(F)c(Cl)c3)C2(Cl)Cl)cc(F)c1F", "note": "(racemic) [Compound 1554]", "inhibition at 0.01 µM": "≥ 80"}
{"smiles": "CCNC(=O)c1cc(NC(=O)C2C(c3cc(Cl)cc(Cl)c3)C2(Cl)Cl)cc(Cl)c1Cl", "note": "(racemic) [Compound 1553]", "inhibition at 0.01 µM": 100}
{"smiles": "O=C(NCCF)c1cc(NC(=O)C2C(c3cc(Cl)cc(Cl)c3)C2(Cl)Cl)cc(Cl)c1Cl", "note": "(racemic) [Compound 1539]", "inhibition at 0.01 µM": 100}
{"smiles": "CC(C)(NC(=O)c1cc(NC(=O)C2C(c3cc(F)c(F)c(F)c3)C2(Cl)Cl)ccc1Cl)C(F)(F)F", "note": "(stereo not shown) [Compound 1603]", "inhibition at 0.01 µM": "≥ 80"}
{"smiles": "O=C(NC1CC(F)(F)C1)c1cc(NC(=O)C2C(c3cccc(C(F)(F)F)c3)C2(Cl)Cl)ccc1Cl", "note": "(racemic) [Compound 1508]", "inhibition at 0.01 µM": 100}
{"smiles": "O=C(NCCC(F)(F)F)c1cc(NC(=O)C2C(c3cc(Cl)cc(Cl)c3)C2(Cl)Cl)cc(Cl)c1Cl", "note": "(racemic) [Compound 1552]", "inhibition at 0.01 µM": "≥ 80"}
{"smiles": "CC(C)CNC(=O)c1cc(NC(=O)C2C(c3cc(Cl)cc(Cl)c3)C2(Cl)Cl)ccc1Cl", "note": "(racemic) [Compound 1502]", "inhibition at 0.01 µM": 100}
{"smiles": "O=C(NCC(F)(F)F)c1cc(NC(=O)C2C(c3cc(Cl)cc(Cl)c3)C2(Cl)Cl)ccc1Cl", "note": "(racemic) [Compound 1500]", "inhibition at 0.01 µM": "≥ 80"}
{"smiles": "O=C(NCCC(F)(F)F)c1c(F)ccc(NC(=O)C2C(c3ccc(F)c(Cl)c3)C2(Cl)Cl)c1F", "note": "(racemic) [Compound 1573]", "inhibition at 0.01 µM": 100}
{"smiles": "O=C(NCC(F)(F)F)c1cc(NC(=O)C2C(c3ccc(F)c(Cl)c3)C2(Cl)Cl)ccc1Cl", "note": "(racemic) [Compound 1537]", "inhibition at 0.01 µM": 100}
{"smiles": "CC(NC(=O)c1cc(NC(=O)C2C(c3cc(F)c(F)c(F)c3)C2(Cl)Cl)ccc1Cl)C(F)(F)F", "note": "(racemic) [Compound 1602]", "inhibition at 0.01 µM": 100}
{"smiles": "N#CC1(NC(=O)c2cc(NC(=O)C3C(c4cc(C(F)(F)F)cc(C(F)(F)F)c4)C3(Cl)Cl)ccc2Cl)CC1", "note": "(stereo not shown) [Compound 1612]", "inhibition at 0.01 µM": 100}
{"smiles": "O=C(NC1COC1)c1cc(NC(=O)C2C(c3cc(Cl)cc(Cl)c3)C2(Cl)Cl)ccc1Cl", "note": "(racemic) [Compound 1510]", "inhibition at 0.01 µM": 100}
{"smiles": "O=C(NCC(F)(F)F)c1cc(NC(=O)C2C(c3ccc(F)c(Cl)c3)C2(Cl)Cl)cc(Cl)c1F", "note": "(racemic) [Compound 1570]", "inhibition at 0.01 µM": "≥ 80"}
{"smiles": "N#CC1(NC(=O)c2cc(NC(=O)C3C(c4ccc(Cl)c(Cl)c4)C3(Cl)Cl)ccc2Cl)CC1", "note": "(racemic) [Compound 1501]", "inhibition at 0.01 µM": "≥ 80"}
{"smiles": "Cc1c(Cl)cc(NC(=O)C2C(c3ccc(F)c(Cl)c3)C2(Cl)Cl)cc1C(=O)NCCCCl", "note": "(racemic) [Compound 1566]", "inhibition at 0.01 µM": 100}
{"smiles": "Cc1cc(Cl)cc(C2C(C(=O)Nc3ccc(Cl)c(C(=O)NC4CC(F)(F)C4)c3)C2(Cl)Cl)c1", "note": "(racemic) [Compound 1513]", "inhibition at 0.01 µM": 100}
{"smiles": "O=C(NC1CCOC1=O)c1cc(NC(=O)C2C(c3cc(Cl)cc(Cl)c3)C2(Cl)Cl)ccc1Cl", "note": "(racemic) [Compound 1526]", "inhibition at 0.01 µM": 100}
{"smiles": "Cc1c(Cl)cc(NC(=O)C2C(c3ccc(F)c(Cl)c3)C2(Cl)Cl)cc1C(=O)NCC(F)(F)F", "note": "(racemic) [Compound 1561]", "inhibition at 0.01 µM": 100}
{"smiles": "Cc1cc(NC(=O)C2C(c3ccc(F)c(Cl)c3)C2(Cl)Cl)cc(C(=O)NCCCCl)c1Cl", "note": "(racemic) [Compound 1557]", "inhibition at 0.01 µM": 100}
{"smiles": "CCNC(=O)c1cc(NC(=O)C2C(c3cc(Cl)cc(Cl)c3)C2(Cl)Cl)ccc1Cl", "note": "(racemic) [Compound 1509]", "inhibition at 0.01 µM": 100}
{"smiles": "N#CC1(NC(=O)c2cc(NC(=O)C3C(c4cc(Cl)cc(Cl)c4)C3(Cl)Cl)ccc2Cl)CC1", "note": "(racemic) [Compound 1515]", "inhibition at 0.01 µM": 100}
{"system": "Copepodids (juvenile sea lice stage of Lepeophtheirus salmonis)", "experiment": "Juvenile sea lice contact assay", "conditions": "test concentration 100 nM, approximately 24 hours continuous exposure in seawater, read-out: Sea lice inhibition (% of dead+damaged copepodids)", "experimental": "as §1", "units": {"inhibition at 0.1 µM": "%"}}
{"smiles": "C#CCNC(=O)c1cc(NC(=O)C2C(c3cc(Cl)cc(Cl)c3)C2(Cl)Cl)cc(F)c1F", "note": "(stereo not shown) [Compound 1629]", "inhibition at 0.1 µM": 100}
{"smiles": "N#CC1(NC(=O)c2cc(NC(=O)C3C(c4ccc(Cl)c(C(F)F)c4)C3(Cl)Cl)ccc2Cl)CC1", "note": "(racemic) [Compound 1546]", "inhibition at 0.1 µM": 100}
{"smiles": "O=C(NC1CC(F)(F)C1)c1cc(NC(=O)C2C(c3cccc(C(F)(F)F)c3)C2(Cl)Cl)ccc1Cl", "note": "(stereo not shown) [Compound 1611]", "inhibition at 0.1 µM": 100}
{"smiles": "O=C(NC1(C(F)(F)F)CC1)c1cc(NC(=O)C2C(c3cc(Cl)cc(Cl)c3)C2(Cl)Cl)ccc1F", "note": "(stereo not shown) [Compound 1627]", "inhibition at 0.1 µM": "≥ 80"}
{"smiles": "N#CC1(NC(=O)c2cc(NC(=O)C3C(c4cc(F)c(Br)c(F)c4)C3(Cl)Cl)ccc2Cl)CC1", "note": "(racemic) [Compound 1544]", "inhibition at 0.1 µM": 100}
{"smiles": "C#CCNC(=O)c1cc(NC(=O)C2C(c3cc(Cl)cc(Cl)c3)C2(Cl)Cl)ccc1F", "note": "(stereo not shown) [Compound 1631]", "inhibition at 0.1 µM": 100}
{"smiles": "N#CC1(NC(=O)c2cc(NC(=O)C3C(c4cc(F)cc(C(F)F)c4)C3(Cl)Cl)ccc2Cl)CC1", "note": "(racemic) [Compound 1547]", "inhibition at 0.1 µM": 100}
{"smiles": "CC1(NC(=O)c2cc(NC(=O)C3C(c4cc(Cl)cc(Cl)c4)C3(Cl)Cl)cc(F)c2F)CC1", "note": "(stereo not shown) [Compound 1616]", "inhibition at 0.1 µM": 100}
{"smiles": "O=C(NCC(F)(F)F)c1cc(NC(=O)C2C(c3ccc(F)c(F)c3)C2(Cl)Cl)ccc1Cl", "note": "(stereo not shown) [Compound 1591]", "inhibition at 0.1 µM": 100}
{"smiles": "N#CC1(NC(=O)c2cc(NC(=O)C3C(c4cccc(C(F)F)c4)C3(Cl)Cl)ccc2Cl)CC1", "note": "(racemic) [Compound 1549]", "inhibition at 0.1 µM": 100}
